According to US11771702B2, “Agonists of PPAR-δ” (priority 2018, dated 2023):
Where two headings read alike, the source gives them in different places.

How the values were obtained:
PPAR-δ [1] = target: T1, PPAR-δ (Homo sapiens, UniProt Q03181); assay: GAL4-DBD/PPAR-LBD luciferase reporter agonist assay in HEK293T cells, PPAR-δ; format: cell-based; conditions: for PPAR subtype selectivity: PPAR-δ vs PPAR-α and PPAR-γ
T1 construct: hPPARδ/LBD encoding amino acids 147-441; expressed in transfected cells; host or cells: HEK293T
T1 sequence (Q03181 147-441): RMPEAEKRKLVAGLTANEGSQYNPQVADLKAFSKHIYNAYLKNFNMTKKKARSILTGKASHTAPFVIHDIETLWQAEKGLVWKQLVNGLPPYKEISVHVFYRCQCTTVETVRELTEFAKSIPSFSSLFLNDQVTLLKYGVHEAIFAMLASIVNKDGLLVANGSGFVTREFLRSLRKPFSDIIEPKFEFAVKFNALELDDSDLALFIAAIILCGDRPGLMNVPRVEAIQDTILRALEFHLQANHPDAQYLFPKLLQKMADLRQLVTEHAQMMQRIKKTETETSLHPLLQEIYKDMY
Protocol: (§1) Measuring molecular agonist activities—a GAL4-DNA Binding Domain (GAL4-DBD) fusion protein was constructed for each PPAR family member. To assess compound activity, each construct was co-transfected into HEK293T cells (American Type Culture Collection; Manassas, Va.) along with the reporter construct, pGL5 (Promega) using Fugene 6 (Promega) as a transfection reagent and the manufacturer's protocol. An eleven-point dilution series of each compound was added to the cells and incubated overnight. Luciferase levels were then determined following the addition of Bright-Glo (Promega) using the manufacturer's recommendations.

PPAR-γ = target: T2, PPAR-γ (Homo sapiens, UniProt P37231); assay: GAL4-DBD/PPAR-LBD luciferase reporter agonist assay in HEK293T cells, PPAR-γ; format: cell-based
T2 construct: hPPARγ/LBD encoding amino acids 184-477; expressed in transfected cells; host or cells: HEK293T
T2 sequence (P37231 184-477 isoform P37231-2): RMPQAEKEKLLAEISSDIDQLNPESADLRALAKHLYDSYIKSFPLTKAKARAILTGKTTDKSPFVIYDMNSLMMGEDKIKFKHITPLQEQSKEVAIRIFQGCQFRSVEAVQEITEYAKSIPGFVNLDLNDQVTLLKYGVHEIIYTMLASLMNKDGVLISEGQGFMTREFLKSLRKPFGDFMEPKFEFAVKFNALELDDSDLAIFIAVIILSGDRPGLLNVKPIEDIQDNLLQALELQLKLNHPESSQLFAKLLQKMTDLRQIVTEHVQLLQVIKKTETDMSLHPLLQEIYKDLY
Protocol: as §1

PPAR-α = target: T3, PPAR-α (Homo sapiens, UniProt Q07869); assay: GAL4-DBD/PPAR-LBD luciferase reporter agonist assay in HEK293T cells, PPAR-α; format: cell-based
T3 construct: hPPARα/LBD encoding amino acids 175-468; expressed in transfected cells; host or cells: HEK293T
T3 sequence (Q07869 175-468): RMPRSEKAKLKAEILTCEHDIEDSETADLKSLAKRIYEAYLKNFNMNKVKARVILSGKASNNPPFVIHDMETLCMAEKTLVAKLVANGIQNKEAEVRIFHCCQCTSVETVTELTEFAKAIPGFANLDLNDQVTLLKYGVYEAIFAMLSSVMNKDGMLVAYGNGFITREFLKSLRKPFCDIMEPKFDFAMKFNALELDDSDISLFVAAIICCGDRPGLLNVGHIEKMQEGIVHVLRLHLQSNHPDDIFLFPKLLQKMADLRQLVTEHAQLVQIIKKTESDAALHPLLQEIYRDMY
Protocol: as §1

PPAR-δ [2] = target: T4, PPAR-δ (Homo sapiens, UniProt Q03181); conditions: ligand of the PDB complex, published EC50; cited from earlier work
T4 sequence (Q03181 1-441): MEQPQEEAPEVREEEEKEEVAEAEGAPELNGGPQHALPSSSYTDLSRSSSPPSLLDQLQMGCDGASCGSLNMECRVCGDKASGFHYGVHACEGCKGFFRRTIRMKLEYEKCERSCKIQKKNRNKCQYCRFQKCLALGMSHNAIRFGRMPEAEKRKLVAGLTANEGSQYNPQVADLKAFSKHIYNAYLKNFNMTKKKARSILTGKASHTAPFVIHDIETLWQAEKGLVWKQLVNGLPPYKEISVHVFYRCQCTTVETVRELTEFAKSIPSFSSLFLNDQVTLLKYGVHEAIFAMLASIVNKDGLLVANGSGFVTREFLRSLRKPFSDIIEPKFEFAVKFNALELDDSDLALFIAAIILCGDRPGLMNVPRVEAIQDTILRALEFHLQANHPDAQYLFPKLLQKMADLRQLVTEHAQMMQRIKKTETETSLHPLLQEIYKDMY

[3] = Table 10 (PPAR-δ), read-out: PPAR-δ EC50

Compound	EC50 (PPAR-δ [1]; Table 9)	EC50 (PPAR-δ [1]; Table 10)	EC50 (PPAR-α; Table 10)	other results
Cc1ccc(-c2nc(SCCCC(=O)N3CCOCC3)[nH]c2-c2ccc(C)cc2)cc1 [GNF-9820]	0.012 µM	–	–	–
Cc1cc(C(=O)COC(=O)c2ccc(O)cc2O)c(C)n1Cc1ccc(F)cc1 [GNF-9969]	–	9.48 µM	6.94 µM	EC50 (PPAR-γ; [3]): 1.01 µM
CC(C(=O)Nc1ccc(SC(F)F)cc1)N1CC=C(c2ccc(O)cc2)CC1 (stereo not shown) [GNF-8208]	–	7.86 µM	–	–
O=C(OCC(=O)c1ccc(O)cc1O)c1ccc(COc2ccc3ccccc3c2)o1 [GNF-6928]	–	3.7 µM	6.9 µM	EC50 (PPAR-γ; [3]): 3.78 µM
Cc1ccc(C(=O)Nc2cccc(CNCc3ccc(OC(F)(F)F)cc3)c2)cc1 [GNF-0341]	0.011 µM	–	–	PPAR subtype selectivity (PPAR-δ [1]): agonists of PPAR-δ and PPAR-γ only; EC50 (PPAR-γ; Table 9, read-out: PPAR-γ EC50): 1.26 µM
O=C(Nc1ccccc1O)C1CCN(C(=O)c2ccc(OCC3CCCO3)cc2)CC1 (stereo not shown) [GNF-9448]	0.883 µM	–	–	EC50 (PPAR-γ; Table 9, read-out: PPAR-γ EC50): 0.937 µM; EC50 (PPAR-α; Table 9): 7.06 µM
O=C(O)Cc1csc(SCc2cc(F)cc3c2OC(c2ccccc2)OC3)n1 (stereo not shown) [GNF-1051]	–	7.76 µM	7.33 µM	–
CCCOc1c(/C=C/C(=O)c2ccc(SCC(=O)O)c(OC)c2)cccc1OCC [GNF-1676]	–	8.39 µM	6.2 µM	EC50 (PPAR-γ; [3]): 1.29 µM
COc1cc(/C=C2/S/C(=N/c3ccccc3)NC2=O)ccc1OCc1cccc(C(=O)O)c1 [GNF-5758]	–	4.33 µM	6.93 µM	EC50 (PPAR-γ; [3]): 9.73 µM
CC/C=C\C/C=C\C/C=C\C/C=C\C/C=C\CCCC(=O)O [3GXW]	–	–	–	EC50 (PPAR-δ [2]): 4 µM
O=C(NCCCCOc1ccc(F)cc1)c1ccc([N+](=O)[O-])c(O)c1 [GNF-7176]	–	7.24 µM	–	–
COCCCn1c(SCc2cccc(C(=O)O)c2)nc2sc3c(c2c1=O)CCCS3 [GNF-5154]	–	7.04 µM	> 10 µM	EC50 (PPAR-γ; [3]): > 10 µM
COc1ccc(N2CCN(C(=O)CSc3nnc(COc4ccc(Cl)cc4C)[nH]3)CC2)cc1 [GNF-7486]	0.018 µM	–	–	–

The next lines start with results.

EC50 (PPAR-δ [1]; Table 9)	EC50 (PPAR-δ [1]; Table 10)	EC50 (PPAR-α; Table 10)	Compound	other results
0.011 µM	–	–	CCOC(=O)NC(=O)COC(=O)c1c2c(nc3ccccc13)/C(=C\c1ccc(OC)cc1)CC(C)C2 (stereo not shown) [GNF-8560]	PPAR subtype selectivity (PPAR-δ [1]): pan-agonist; EC50 (PPAR-γ; Table 9, read-out: PPAR-γ EC50): 3.53 µM; EC50 (PPAR-α; Table 9): 1.41 µM
0.019 µM	–	–	COc1cc(CNCc2cc(C)on2)ccc1OCC(=O)Nc1ccc(Br)cc1 [GNF-6952]	PPAR subtype selectivity (PPAR-δ [1]): agonists of PPAR-δ and PPAR-α only; EC50 (PPAR-α; Table 9): 7.56 µM
0.006 µM	–	–	O=C(CN1CCN(c2ccc(O)cc2)CC1)NCC1(N2CCOCC2)CCCCC1 [GNF-8501]	–
0.013 µM	–	–	CCc1cc(C(c2cccc(OC)c2)N2CCN(CCO)CC2)c(NC(=O)c2ccccc2)s1 (stereo not shown) [GNF-5295]	PPAR subtype selectivity (PPAR-δ [1]): agonists of PPAR-δ and PPAR-γ only; EC50 (PPAR-γ; Table 9, read-out: PPAR-γ EC50): 7.28 µM; EC50 (PPAR-α; Table 9): > 10 µM
–	7.55 µM	7.04 µM	O=C(COc1ccc(C(=O)O)cc1)NC(c1ccccc1)c1ccc(Cl)cc1 (stereo not shown) [GNF-0248]	–
0.012 µM	–	–	O=C(Nc1cccc(CNCC(c2cccs2)N2CCOCC2)c1)c1ccc(Cl)cc1 (stereo not shown) [GNF-6029]	–
0.008 µM	–	–	CCOc1cccc(/C=N/c2cccc(-c3csc(/N=C/c4cccc(OCC)c4O)n3)c2)c1O [GNF-6878]	–
–	8.24 µM	0.825 µM	COc1ccc(C(=O)/C=C/c2c(C)nn(-c3ccccc3)c2Cl)cc1CSCC(=O)O [GNF-4909]	EC50 (PPAR-γ; [3]): 1.83 µM
0.007 µM	–	–	O=C(NCc1ccc(COCC(F)(F)F)cc1)c1cc(-c2ccccc2)[nH]n1 [GNF-3632]	PPAR subtype selectivity (PPAR-δ [1]): agonists of PPAR-δ and PPAR-α only; EC50 (PPAR-α; Table 9): 5.48 µM
–	4.6 µM	–	O=[N+]([O-])c1cc(S(=O)(=O)N2CCCC2)ccc1OCC(O)CNCc1ccc(F)cc1 (stereo not shown) [GNF-9594]	–
–	7.49 µM	4.63 µM	Cc1cc(C(=O)COc2ccc(C(=O)O)cc2)c(C)n1CCC1=CCCCC1 [GNF-9057]	EC50 (PPAR-γ; [3]): 8.6 µM
0.017 µM	–	–	O=C(Nc1ccccc1O)C1CCN(C(=O)COc2ccc(F)cc2)CC1 [GNF-5891]	EC50 (PPAR-γ; Table 9, read-out: PPAR-γ EC50): > 10 µM
–	6.82 µM	2.33 µM	CCOc1cc(/C=C/C(=O)O)ccc1OCc1ccc(C(C)(C)C)cc1 [GNF-4516]	–
